{"source": "patent EP0821957A2", "about": "(priority 1996, dated 1998)", "key": {"[1]": {"target": "muscarinic cholinergic receptors", "experiment": "^3H-oxotremorine-M binding inhibition", "conditions": "inhibition of binding of ^3H-oxotremorine-M; read-out: inhibition costant (Ki)"}, "m4 receptors": {"target": "m4 receptors (Homo sapiens, UniProt P08173)", "sequence (P08173 whole entry)": "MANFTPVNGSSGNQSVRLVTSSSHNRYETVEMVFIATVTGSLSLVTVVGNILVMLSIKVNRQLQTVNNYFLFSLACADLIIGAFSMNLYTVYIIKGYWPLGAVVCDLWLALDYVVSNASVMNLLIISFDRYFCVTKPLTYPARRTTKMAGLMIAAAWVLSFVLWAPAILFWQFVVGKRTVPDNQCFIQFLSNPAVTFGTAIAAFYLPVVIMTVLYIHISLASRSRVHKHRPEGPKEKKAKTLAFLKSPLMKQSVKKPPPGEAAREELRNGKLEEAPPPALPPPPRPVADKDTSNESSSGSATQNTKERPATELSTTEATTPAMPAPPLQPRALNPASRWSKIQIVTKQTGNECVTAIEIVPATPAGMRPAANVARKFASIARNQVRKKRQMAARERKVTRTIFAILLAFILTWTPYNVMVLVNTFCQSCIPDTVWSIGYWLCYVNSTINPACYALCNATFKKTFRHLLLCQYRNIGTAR", "type": "cell-based", "conditions": "CHO m4 cells treated with pertussis toxin"}}}
{"smiles": "CCCCCCOc1nsnc1C1=CCCN(C)C1", "note": "[Xanomeline, 3-(4-hexyloxy-1,2,5-thiadiazol-3-yl)-1,2,5,6-tetrahydro-1-methylpyridine]", "values": [{"measurement": "Ki", "setting": "[1]", "value": 2, "unit": "nM"}, {"measurement": "formation of cAMP", "setting": "m4 receptors", "value": "efficaciously and potently stimulated the formation of cAMP"}]}
